A short description of data set [1]: Transdermal delivery of estradiol and estradiol phosphate in ovariectomised hairless rats, total estrogens RIA in plasma.
Method: Animals: 23 female albino hairless rats were ovariectomised under isoflurane-induced anaesthesia and allowed to recover for 10 days prior to experimentation.
Blood was collected into EDTA tubes, then centrifuged at 5000 rpm for 10 minutes. Plasma was removed and stored at −80° C. until assayed.
20 μl was transferred to an Eppendorf tube and the solvent was evaporated in a nitrogen stream. Then 0.999 g of the carrier cream from example 1 was added, and mixed with a glass rod and centrifuged. This was repeated 5 times. Final concentration=4.90 μg/ml.
20 μl was transferred to an Eppendorf tube and the solvent was evaporated in a nitrogen stream. Then 1.003 g of the carrier cream from example 1 was added, and mixed with a glass rod and centrifuged. This was repeated 5 times. Final concentration=4.89 μg/ml.
20 μl of these solutions was directly applied to the skin.
Each formulation was applied to the dorsal skin of an anaesthetised rat in an area of approximately 4 cm^2 marked with an indelible felt tip marker. […] The formulation was ‘rubbed’ in until it appeared to have been absorbed into the skin, which took between 5-10 min. […]
The standard curve range for this assay is 2.5-100 pg/ml (r^2=−0.943). Extraction efficiency was determined through a series of spiking assays and was between 90 to 98% using diethyl ether as the extraction solvent for rat plasma and organs. […]
Data set [2] can be described thus: Acute transdermal penetration of 3H-estradiol and 3H-estradiol phosphate in the hairless rat. The note with it: 24 hour period. It is filed as in vivo, female albino hairless rats.
Method: Animals: 6 female albino hairless rats were used in this study (n=3 per treatment group).
Transdermal Formulation Preparation and Application: ^3H-E and ^3H-EP were provided by Vital Health Sciences Pty Ltd and prepared in formula approximately 1 hour before application in the carrier cream from Example 1.
The solvents from both ^3H-E and ^3H-EP were evaporated under a stream of nitrogen. Once completely dry 0.498 g of the carrier cream of example 1 was added to ^3H-E and 0.502 g to ^3H-EP and mixed with a glass rod and centrifuged for 1 minute. This was repeated 5 times.
Each formulation was applied to the dorsal skin of an anaesthetised rat in an area of approximately 4 cm^2 marked with an indelible felt tip marker. […] The formulation was ‘rubbed’ in until it appeared to have been absorbed into the skin, which took between 5 to 10 minutes. A tegaderm (3M) patch was applied to the area to prevent animals from removing the formulation.
Data set [3] in a line: Transdermal delivery of testosterone and testosterone phosphate in ovariectomised hairless rats, total testosterone in plasma. It is filed as in vivo, Female albino hairless rats. The note with it: for concentration of testosterone in blood: topical 1 μg in carrier of Example 1. On the procedure:
Animals: 12 Female albino hairless rats were ovariectomised under isoflurane-induced anesthesia and allowed to recover for 15 days prior to experimentation.
Plasma was removed and stored at −80° C. until assay.
Testosterone Phosphate (TP): 4.41 mg of TP was dissolved in 15 ml of water and then made up to 100 ml with ethanol. […] This was repeated 5 times.
Testosterone (T): 3.94 mg of T was dissolved in 15 ml of water and then made up to 100 ml with ethanol. […] This was repeated 5 times.

For data set [4] the following is noted: cited from earlier work.

With `C[C@]12CC[C@@H]3c4ccc(O)cc4CC[C@H]3[C@@H]1CC[C@@H]2OP(=O)(O)O` [EP, estradiol 3:phosphate], in data set [1] (equivalent doses in carrier of Example 1, over 24 hours), the “plasma concentration of the hormone, EP versus E treatment” value was “at least twice the plasma concentration of the hormone compared to the E treatment”. In addition, in data set [1] (topical in carrier cream of Example 1), the “inflammatory symptoms (erythema, oedema) at the application site” value is given as “neither E or EP treatment produced any inflammatory symptoms”. In data set [2], the “levels in epidermis and dermis” value is “Higher levels of EP were found in the epidermis and dermis”.

As to `C[C@]12CC[C@H]3[C@@H](CCC4=CC(=O)CC[C@@]43C)[C@@H]1CC[C@@H]2O` [T, testosterone], in data set [3], the “concentration of testosterone in blood” value is reported as “increased”. Moreover, the “maximum concentration of total testosterone in plasma (mean±SD)” value in data set [3] (topical 1 μg in carrier of Example 1, baseline subtracted) was found to be 30.90 ± 11.00 pg/mL.

With testosterone phosphate [TP], the “concentration of testosterone in blood” value in data set [3] was “increased”.

Turning to `C[C@]12CC[C@@H]3c4ccc(O)cc4CC[C@H]3[C@@H]1CC[C@@H]2O` [E, estradiol], the “mean blood levels of estradiol 24 hours post dose” value in data set [4] (3 mg daily over 30 cm2, carrier with padimate O, 4 women, 9 days) was 0.053 ± 0.007 ng/mL. The “improvement of circulating estradiol from baseline” value in data set [4] (baseline 13±5 pg/ml) is 4 fold.

Values taken from patent US8841342B2, “Carrier” (Vital Health Sciences Pty. Ltd., priority 2002, dated 2014).
